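Results reflect a 48-hour exposure of cells in 96-well plates to compound at five concentrations. GI50 = concentration required for 50% inhibition of growth. The concentration for full growth arrest is given as TGI.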 Where a SMILES comes first, the peptide text is derived from it. [ ]: non-standard residue; d: D form. Phe(F5) = N[CH](Cc1c(F)c(F)c(F)c(F)c1F)C(=O)O
What was measured:
Assay in all cases: DTP human tumour cell line panel, 48 h
[1] = test system: SN12C renal
[2] = test system: SK-MEL-28 melanoma
[3] = test system: OVCAR-5 ovarian
[4] = test system: NCI-H226 lung
[5] = test system: NCI-H522 lung
[6] = test system: RXF 393 renal
[7] = test system: SW-620 colon
[8] = test system: HOP-92 NSCLC
[9] = test system: HCT-15 colon
[10] = test system: HL-60(TB) leukemia

C=C1C(=O)OC2CC3(C)C=CC(=O)C(=C)C3CC12 (configuration not stated)
TGI [1]: 3.46 µM
TGI [2]: 3.48 µM
TGI [3]: 8.05 µM
TGI [4]: 25.8 µM
TGI [5]: 1.69 µM
TGI [6]: 4.46 µM
TGI [7]: 2.36 µM
TGI [8]: 3.49 µM
TGI [9]: 4.09 µM

C=C1C(=O)O[C@H]2C[C@@H](C)[C@@H]3CC(=O)OC[C@@]3(C)CC12 (some centres not stated)
TGI [1]: 60.8 µM
TGI [2]: 47.8 µM
TGI [5]: 12 µM
TGI [7]: 35.1 µM
TGI [8]: 34.8 µM
TGI [9]: > 100 µM

Cc1ccc2c(c1)C1(C)OC(CC(N)C1O)O2 (configuration not stated)
TGI [1]: > 100 µM
TGI [2]: > 100 µM
TGI [4]: > 100 µM
TGI [5]: > 100 µM
TGI [6]: > 100 µM
TGI [10]: > 100 µM
TGI [7]: > 100 µM
TGI [9]: > 100 µM

CC(C)(C(=O)NN)c1ccccc1
TGI [1]: > 100 µM
TGI [2]: > 100 µM
TGI [3]: > 100 µM
TGI [5]: > 100 µM
TGI [10]: > 100 µM
TGI [7]: > 100 µM
TGI [8]: > 100 µM
TGI [9]: > 100 µM

CN1CCc2c1nc(-c1ccccc1)c1c2N(C)CC1
TGI [1]: > 100 µM
TGI [3]: > 100 µM
TGI [6]: > 100 µM
TGI [10]: > 100 µM
TGI [7]: > 100 µM
TGI [8]: 91 µM
TGI [9]: > 100 µM

O=S(=O)(c1ccc(NC(=S)NCc2cccnc2)cc1)N1CCCCC1
GI50 [1]: 0.21 µM
TGI [1]: > 100 µM
GI50 [2]: 50.4 µM
TGI [2]: > 100 µM
GI50 [3]: 5.46 µM
TGI [3]: > 100 µM
GI50 [4]: 39.5 µM
TGI [4]: > 100 µM
GI50 [5]: 10.1 µM
TGI [5]: > 100 µM
GI50 [6]: 72.4 µM
TGI [6]: > 100 µM
GI50 [7]: 0.579 µM
TGI [7]: > 100 µM
GI50 [8]: 11.1 µM
TGI [8]: > 100 µM
GI50 [9]: 13.6 µM
TGI [9]: > 100 µM

COc1ccccc1[N-]C(C1=C([O-])c2ccccc2C1=O)c1ccccc1.COc1ccccc1[N-]C(C1=C([O-])c2ccccc2C1=O)c1ccccc1.[Cu+2] (configuration not stated)
GI50 [1]: 9.37 µM
TGI [1]: > 100 µM
GI50 [2]: 16.2 µM
TGI [2]: > 100 µM
GI50 [10]: 3.25 µM
TGI [10]: > 100 µM
GI50 [7]: 6.08 µM
TGI [7]: > 100 µM
GI50 [8]: 9.86 µM
TGI [8]: 69.7 µM
GI50 [9]: 6.51 µM
TGI [9]: > 100 µM

COc1cc2cc(Oc3ccc(NC(=O)Nc4ccc(Cl)c(C(F)(F)F)c4)cc3)c(C)nc2cc1OCCN1CCCCC1
GI50 [1]: 1.67 µM
TGI [1]: 3.26 µM
GI50 [2]: 1.79 µM
TGI [2]: 3.23 µM
GI50 [3]: 1.92 µM
TGI [3]: 3.38 µM
GI50 [5]: 1.59 µM
TGI [5]: 3.26 µM
GI50 [10]: 1.87 µM
TGI [10]: 3.53 µM
GI50 [7]: 1.9 µM
TGI [7]: 3.48 µM
GI50 [8]: 1.09 µM
TGI [8]: 2.41 µM
GI50 [9]: 1.25 µM
TGI [9]: 2.59 µM

CCN1C(=O)N(CC)C2C1NN=c1s/c(=C3\C(=O)N(C(C)C)c4ccccc43)c(=O)n12 (configuration not stated)
GI50 [1]: 0.616 µM
TGI [1]: > 100 µM
GI50 [2]: 1.07 µM
TGI [2]: > 100 µM
GI50 [3]: 0.639 µM
TGI [3]: > 100 µM
GI50 [4]: 0.441 µM
TGI [4]: 23.2 µM
GI50 [5]: 0.465 µM
TGI [5]: > 100 µM
GI50 [10]: 0.24 µM
TGI [10]: 0.63 µM
GI50 [7]: 0.417 µM
TGI [7]: > 100 µM
GI50 [8]: 0.342 µM
TGI [8]: 6.53 µM
GI50 [9]: 0.322 µM
TGI [9]: > 100 µM

CN(C)c1ccc2c(NCCCCCCNc3ccnc4cc(N(C)C)ccc34)ccnc2c1
TGI [1]: > 100 µM
TGI [2]: 50.8 µM
TGI [3]: 79.6 µM
TGI [5]: 25.2 µM
TGI [6]: 38.4 µM
TGI [10]: > 100 µM
TGI [7]: > 100 µM
TGI [9]: > 100 µM

N#CC(C#N)=Cc1ccc(-c2ccc(-c3nc4ccccc4s3)cc2)o1
GI50 [1]: 1.09 µM
TGI [1]: 12.6 µM
GI50 [2]: 27.5 µM
TGI [2]: > 100 µM
GI50 [3]: 11.9 µM
TGI [3]: 24.2 µM
GI50 [4]: 14.2 µM
TGI [4]: 39.2 µM
GI50 [5]: 17.8 µM
TGI [5]: 51.8 µM
GI50 [6]: 42.4 µM
TGI [6]: > 100 µM
GI50 [10]: 37.4 µM
TGI [10]: > 100 µM
GI50 [7]: 7.9 µM
TGI [7]: > 100 µM
GI50 [9]: 11.9 µM
TGI [9]: 50.4 µM

CCCC(O)[C@@H](O)c1ccc2c(c1O)C(=O)c1c(OC)cccc1C2=O (some centres not stated)
TGI [1]: > 100 µM
TGI [2]: > 100 µM
TGI [3]: > 100 µM
TGI [4]: > 100 µM
TGI [5]: 42.1 µM
TGI [10]: 42.9 µM
TGI [7]: > 100 µM
TGI [8]: > 100 µM
TGI [9]: 82.5 µM

CC(=O)OC1c2ccccc2CC2(OC(C)=O)c3ccccc3C12 (configuration not stated)
TGI [1]: > 100 µM
TGI [2]: > 100 µM
TGI [3]: > 100 µM
TGI [4]: > 100 µM
TGI [6]: > 100 µM
TGI [7]: > 100 µM
TGI [8]: > 100 µM
TGI [9]: > 100 µM

Cc1ccc(C(=O)Nc2ccc(S(=O)(=O)O)c3cc(S(=O)(=O)O)cc(S(=O)(=O)O)c23)cc1NC(=O)c1cccc(N)c1
TGI [1]: > 100 µM
TGI [2]: > 100 µM
TGI [3]: > 100 µM
TGI [4]: > 100 µM
TGI [5]: > 100 µM
TGI [6]: > 100 µM
TGI [10]: > 100 µM
TGI [7]: > 100 µM
TGI [9]: > 100 µM

COC(=O)C(CC(C)C)NC(=O)C(Cc1cnc[nH]1)NC(=O)CNC(=O)C(NC(=O)C(C)NC(=O)C(Cc1c[nH]c2ccccc12)NC(=O)C(CCC(=O)O)NC(=O)C(N)Cc1c(F)c(F)c(F)c(F)c1F)C(C)C (configuration not stated) (H-[Phe(F5)]EWAVGHL-OMe; configuration not given here)
GI50 [1]: > 100 µM
TGI [1]: > 100 µM
GI50 [2]: > 100 µM
TGI [2]: > 100 µM
TGI [3]: > 12.5 µM
TGI [4]: > 12.5 µM
TGI [5]: > 12.5 µM
GI50 [6]: > 100 µM
TGI [6]: > 100 µM
GI50 [10]: > 100 µM
TGI [10]: > 100 µM
GI50 [7]: > 100 µM
TGI [7]: > 100 µM
GI50 [9]: > 100 µM
TGI [9]: > 100 µM

CCOC(=O)C=C1CCN(C(=O)c2ccccc2)CC1
TGI [1]: > 100 µM
TGI [2]: > 100 µM
TGI [3]: > 100 µM
TGI [6]: > 100 µM
TGI [10]: > 100 µM
TGI [7]: > 100 µM
TGI [8]: > 100 µM
TGI [9]: > 100 µM

CC1=C2CCCC2C/C(=N/Nc2ccc([N+](=O)[O-])cc2[N+](=O)[O-])CC1 (configuration not stated)
TGI [1]: > 100 µM
TGI [2]: > 100 µM
TGI [3]: > 100 µM
TGI [4]: > 100 µM
TGI [5]: > 100 µM
TGI [10]: 83.2 µM
TGI [7]: > 100 µM
TGI [8]: > 100 µM
TGI [9]: > 100 µM

CC1CC2C(=O)NC(=O)C2c2[nH]c3ccccc3c21 (configuration not stated)
TGI [1]: > 100 µM
TGI [3]: > 100 µM
TGI [4]: > 100 µM
TGI [5]: > 100 µM
TGI [10]: > 100 µM
TGI [7]: > 100 µM
TGI [8]: > 100 µM
TGI [9]: > 100 µM

C[C@]12CC[C@H]3[C@@H](CCC4=CC(=O)CC[C@@H]43)[C@@H]1CC[C@@H]2OC(=O)N(CCCl)N=O
GI50 [1]: 1.69 µM
TGI [1]: 21.4 µM
GI50 [2]: 11.6 µM
TGI [2]: 26.1 µM
GI50 [3]: 20.8 µM
TGI [3]: 49.9 µM
GI50 [4]: 14 µM
TGI [4]: 34.1 µM
GI50 [5]: 5.79 µM
TGI [5]: 29 µM
GI50 [10]: 0.28 µM
TGI [10]: 2.15 µM
GI50 [7]: 1.75 µM
TGI [7]: 26.7 µM
GI50 [8]: 0.391 µM
TGI [8]: 17.5 µM
GI50 [9]: 8.45 µM
TGI [9]: 31.3 µM

Reference: PubChem BioAssay (NCI)
